Assay results from the Kinase Knowledgebase extract (Sharma et al. 2016).
pIC50: −log10 of the molar value.

Target: PIK3CA (human) (UniProt P42336)
Assay: Assessment of PIK3CA Kinase Activity

PIK3CA (human), sequence (P42336 whole entry, looked up): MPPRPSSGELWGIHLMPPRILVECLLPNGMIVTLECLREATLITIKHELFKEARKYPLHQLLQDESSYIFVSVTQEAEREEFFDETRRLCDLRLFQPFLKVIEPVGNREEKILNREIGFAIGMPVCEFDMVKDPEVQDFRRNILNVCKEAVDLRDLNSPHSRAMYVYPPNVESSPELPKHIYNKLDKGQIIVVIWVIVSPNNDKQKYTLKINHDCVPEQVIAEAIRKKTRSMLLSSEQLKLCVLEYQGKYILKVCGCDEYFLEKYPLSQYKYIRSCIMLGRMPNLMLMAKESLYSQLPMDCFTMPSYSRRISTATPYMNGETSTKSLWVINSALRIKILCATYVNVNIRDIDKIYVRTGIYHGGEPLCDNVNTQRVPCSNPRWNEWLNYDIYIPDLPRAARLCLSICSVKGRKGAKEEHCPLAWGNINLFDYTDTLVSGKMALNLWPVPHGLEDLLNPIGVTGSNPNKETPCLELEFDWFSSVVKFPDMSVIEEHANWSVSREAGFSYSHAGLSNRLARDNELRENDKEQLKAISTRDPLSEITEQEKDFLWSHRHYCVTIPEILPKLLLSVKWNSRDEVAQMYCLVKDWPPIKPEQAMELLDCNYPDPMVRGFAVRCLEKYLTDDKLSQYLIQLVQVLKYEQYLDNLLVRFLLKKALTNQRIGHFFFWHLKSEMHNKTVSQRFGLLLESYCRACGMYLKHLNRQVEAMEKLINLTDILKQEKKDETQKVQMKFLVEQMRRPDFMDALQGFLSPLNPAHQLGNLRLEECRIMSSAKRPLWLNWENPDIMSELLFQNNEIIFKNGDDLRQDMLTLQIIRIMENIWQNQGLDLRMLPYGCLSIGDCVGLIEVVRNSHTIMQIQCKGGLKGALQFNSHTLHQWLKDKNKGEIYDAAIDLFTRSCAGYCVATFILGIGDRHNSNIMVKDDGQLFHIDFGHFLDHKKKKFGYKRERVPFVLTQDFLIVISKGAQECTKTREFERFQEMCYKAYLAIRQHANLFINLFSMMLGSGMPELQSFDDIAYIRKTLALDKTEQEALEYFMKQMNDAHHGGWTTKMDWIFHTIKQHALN

Row | pIC50 | Structure (SMILES)
1 | > 6.00 | CC(C)n1ncnc1-c1cn2c(n1)-c1ccc(O[C@@H](C)C(=O)O)cc1OCC2
2 | > 6.00 | CC(C)n1ncnc1-c1cn2c(n1)-c1ccc(-c3cnn(C(C)(C)C(N)=O)c3)cc1OCC2
3 | > 6.00 | CCOC(=O)C(C)(C)n1cc(-c2ccc3c(c2)OCCn2cc(-c4nc(C)nn4C(C)C)nc2-3)cn1
4 | > 6.00 | CC(C)n1nc(N)nc1-c1cn2c(n1)-c1ccc(-c3ccc(Cl)cc3)cc1OCC2
5 | > 6.00 | CC(C)n1ncnc1-c1cn2c(n1)-c1cnc(N3CCN(CC(=O)N(C)C)CC3)cc1OCC2
6 | > 6.00 | CC(C)n1ncnc1-c1cn2c(n1)-c1ccc(-c3cn(CC(C)(C)O)cn3)cc1OCC2
7 | > 6.00 | CC(C)n1ncnc1-c1cn2c(n1)-c1cnc(N3CCOCC3)cc1OCC2
8 | > 6.00 | NC(=O)[C@H](CO)Oc1ccc2c(c1)OCCn1cc(-c3ncnn3CC(F)(F)F)nc1-2
9 | > 6.00 | OCCN1CCN(Cc2ccc3c(c2)-n2nc(-c4ncnn4CC(F)(F)F)cc2CCO3)CC1
10 | > 6.00 | Cc1nc(-c2cn3c(n2)-c2ccc(-c4cnc(N(C)C)nc4)cc2OCC3)n(C(C)C)n1
11 | > 6.00 | CNC(=O)CN1CCC(c2ccc3c(c2)OCCn2cc(-c4nc(C)nn4C(C)C)nc2-3)CC1
12 | > 6.00 | CC(C)(CO)NC(=O)c1ccc2c(c1)-c1nc(-c3nccn3-c3ccccc3Cl)cn1CCO2
13 | > 6.00 | CC(C)n1ncnc1-c1cn2c(n1)-c1ccc([C@H]3CCNC[C@@H]3O)cc1OCC2
14 | > 6.00 | CC(C)n1ncnc1-c1cn2c(n1)-c1ccc(CC(=O)NO)cc1OCC2
15 | > 6.00 | Cc1nc(-c2cn3c(n2)-c2ccc(F)cc2OCC3)n(C(C)C)n1
16 | > 6.00 | COC(=O)c1ccc2c(c1)OCCn1cc(-c3ncnn3CC(F)(F)F)nc1-2
17 | > 6.00 | CCc1ccccc1-c1ccc2c(c1)OCCn1cc(-c3ncnn3C(C)C)nc1-2
18 | > 6.00 | Cc1nc(-c2cn3c(n2)-c2cnc(NCC(N)=O)cc2OCC3)n(C(C)C)n1
19 | > 6.00 | CC(C)n1ncnc1-c1cn2c(n1)-c1cnccc1OCC2
20 | > 6.00 | O=C1CCCN1CCNc1cc2c(cn1)-c1nc(-c3ncnn3-c3ccc(F)cc3F)cn1CCO2
21 | > 6.00 | CC(C)n1nc(CO)nc1-c1cn2c(n1)-c1cnc(N(C)C)cc1OCC2

Row | pIC50 | Structure (SMILES)
22 | > 6.00 | CC(C)n1ncnc1-c1cn2c(n1)-c1ccc(N(C)[C@@H](C)C(N)=O)cc1OCC2
23 | > 6.00 | CC(C)n1ncnc1-c1cn2c(n1)-c1ccc(O[C@@H](CCO)C(N)=O)cc1OCC2
24 | > 6.00 | CC(C)n1ncnc1-c1cn2c(n1)-c1cnc(N3CC[C@@H](O)C3)cc1OCC2
25 | > 6.00 | CC(C)n1ncnc1-c1cn2c(n1)-c1ccc(-c3cnc[nH]3)cc1OCC2
26 | > 6.00 | CC(C)n1ncnc1-c1cn2c(n1)-c1ccc(CN(C)C(N)=O)cc1OCC2
27 | > 6.00 | CC(C)n1nc(CO)nc1-c1cn2c(n1)-c1cnc(N3CC(F)(F)C3)cc1OCC2
28 | > 6.00 | CC(C)n1ncnc1-c1cn2c(n1)-c1ccc(CCS(N)(=O)=O)cc1OCC2
29 | > 6.00 | CS(=O)(=O)CCNC(=O)c1ccc2c(c1)-c1nc(-c3ncnn3CC(F)(F)F)cn1CCO2
30 | > 6.00 | CCc1ccccc1-c1cn2c(n1)-c1ccc(C(=O)OC)cc1OCC2
31 | > 6.00 | Nc1nc(-c2cn3c(n2)-c2cc(C(F)(F)F)ccc2OCC3)n(CC(F)(F)F)n1
32 | > 6.00 | CC(C)n1ncnc1-c1cn2c(n1)-c1cc(-c3ccccc3)ccc1OCC2
33 | > 6.00 | CC(C)n1ncnc1-n1cc2c(n1)-c1cc(-c3cn[nH]c3)ccc1OCC2
34 | > 6.00 | Nc1nc(-c2cn3c(n2)-c2cc(C4CC4)ccc2OCC3)n(CC(F)(F)F)n1
35 | > 6.00 | CC(C)n1ncnc1-n1cc2c(n1)-c1ccc(C3CN(CC(N)=O)C3)cc1OCC2
36 | > 6.00 | NC(=O)CN1CC(c2ccc3c(c2)OCCc2cn(-c4ncnn4-c4ccc(F)cc4F)nc2-3)C1
37 | > 6.00 | Cc1nc(-c2cn3c(n2)-c2cnc(N4CC[C@H](O)[C@H]4C(N)=O)cc2OCC3)n(C(C)C)n1
38 | > 6.00 | CC(C)n1nc(N)nc1-c1cn2c(n1)-c1ccc(C#N)cc1OCC2
39 | > 6.00 | Cc1nc(-c2cn3c(n2)-c2ccc(-c4cnn(C)c4)cc2OCC3)n(C(C)C)n1
40 | > 6.00 | NC(=O)c1ccc2c(c1)OCCc1cn(-c3ncnn3-c3ccc(F)cc3F)nc1-2
41 | > 6.00 | CC(C)n1ncnc1-n1cc2c(n1)-c1ccc(-c3cnn(CCO)c3)cc1OCC2

The remaining lines, values behind:

Row | Structure (SMILES) | pIC50
42 | Cc1nc(-c2cn3c(n2)-c2ccc(-c4cnn(CCO)c4)cc2OCC3)n(C(C)C)n1 | > 6.00
43 | CC(C)n1ncnc1-c1cn2c(n1)-c1ccc(COC(N)=O)cc1OCC2 | > 6.00
44 | c1cn(CCN2CCOCC2)c(-c2cn3c(n2)-c2cc(-c4cn[nH]c4)ccc2OCC3)n1 | > 6.00
45 | CC(C)(O)Cn1cc(-c2ccc3c(c2)OCCn2cc(C(=O)N4CCS(=O)(=O)CC4)nc2-3)cn1 | > 6.00
46 | Fc1ccc(-n2ncnc2-n2cc3c(n2)-c2ccc(Br)cc2OCC3)c(F)c1 | 7.24
47 | CC(C)n1ncnc1-c1cn2c(n1)-c1cnc(N3CCC[C@@H]3C(N)=O)cc1OCC2 | > 6.00
48 | CC(C)n1ncnc1-c1cc2n(n1)-c1cc(C(=O)NC3CNC3)ccc1OCC2 | > 6.00
49 | Cc1nc(-c2cn3c(n2)-c2ccc(-c4cnn(CC(C)C(=O)O)c4)cc2OCC3)n(C(C)C)n1 (configuration not stated) | > 6.00
50 | CC(C)n1ncnc1-c1cn2c(n1)-c1ccc(C3CN(CC(=O)N(C)C)C3)cc1OCC2 | > 6.00
51 | Cc1nc(-c2cn3c(n2)-c2ccc(-c4cn(CCO)cn4)cc2OCC3)n(C(C)C)n1 | > 6.00
52 | CC(C)n1ncnc1-c1cc2n(n1)-c1cc(C3CN(CCS(C)(=O)=O)C3)ccc1OCC2 | > 6.00
53 | Cc1nc(-c2cn3c(n2)-c2cnc(N)cc2OCC3)n(C(C)C)n1 | > 6.00
54 | CC(C)n1ncnc1-c1cn2c(n1)-c1ccc(C(=O)NCCS(C)(=O)=O)cc1OCC2 | > 6.00
55 | O=C(c1ccc2c(c1)-c1nc(-c3ncnn3-c3ccc(F)cc3F)cn1CCO2)N1CCN(CCO)CC1 | > 6.00
56 | Cc1nc(-c2cn3c(n2)-c2cnc(N4CC(F)(F)C[C@H]4C(N)=O)cc2OCC3)n(C(C)C)n1 | > 6.00
57 | Cc1nc(-c2cn3c(n2)-c2ccc(OC(C)C)cc2OCC3)n(C(C)C)n1 | > 6.00
58 | CC(C)n1ncnc1-c1cc2n(n1)-c1cc(C3CN(CC(N)=O)C3)ccc1OCC2 | > 6.00
59 | CC(C)n1ncnc1-c1cn2c(n1)-c1ccc(N3CCNC(=O)C3)nc1OCC2 | > 6.00
60 | CC(C)n1ncnc1-c1cn2c(n1)-c1ccc(N3C[C@@H](F)C[C@H]3C(N)=O)cc1OCC2 | > 6.00

Row | Structure (SMILES) | pIC50
61 | CC(C)n1ncnc1-c1cn2c(n1)-c1ccc([C@H]3C[C@H]4CC[C@@H](C3)N4CC(N)=O)cc1OCC2 | > 6.00
62 | COC(=O)c1ccc2c(c1)OCCn1cc(-c3cccc(C(F)(F)F)c3)nc1-2 | > 6.00
63 | CNC(=O)Cn1ccnc1-c1cn2c(n1)-c1ccc(-c3cnn(CC(C)(C)O)c3)cc1OCC2 | > 6.00
64 | CC(C)n1ncnc1-c1cn2c(n1)-c1ccc(C3CN(C(C)(C)C(N)=O)C3)cc1OCC2 | > 6.00
65 | Cc1ncc(-c2ccc3c(c2)OCCn2cc(-c4ncnn4C(C)C)nc2-3)n1C | > 6.00
66 | CCN(CC)CCn1cc(-c2ccc3c(c2)OCCn2cc(-c4ncnn4C(C)C)nc2-3)cn1 | > 6.00
67 | CC(C)CC(Oc1ccc2c(c1)OCCn1cc(-c3ncnn3C(C)C)nc1-2)C(N)=O (configuration not stated) | > 6.00
68 | Cc1nc(-c2ccc3c(c2)OCCn2cc(-c4ncnn4C(C)C)nc2-3)cn1CC(C)(C)O | > 6.00
69 | NC(=O)[C@@H]1CCN1c1ccc2c(c1)OCCn1cc(-c3ncnn3CC(F)(F)F)nc1-2 | > 6.00
70 | Cc1nc(-c2cn3c(n2)-c2cc(F)ccc2OCC3)n(C(C)C)n1 | > 6.00
71 | CC(C)n1ncnc1-c1cn2c(n1)-c1ccc(-c3cn(C)c(CC(C)(C)O)n3)cc1OCC2 | > 6.00
72 | Cc1nc(-c2cn3c(n2)-c2ccc(CNCC(C)(C)O)cc2OCC3)n(-c2ccc(F)cc2F)n1 | > 6.00
73 | CC(C)n1ncnc1-c1cn2c(n1)-c1ccc(CC(=O)O)cc1OCC2 | > 6.00
74 | CC(C)n1ncnc1-c1cn2c(n1)-c1cc(C(F)F)ncc1OCC2 | > 6.00
75 | CC(C)n1ncnc1-c1cn2c(n1)-c1ccc(OCC(F)(F)F)cc1OCC2 | > 6.00
76 | Cc1nc(-c2cn3c(n2)-c2ccc(-c4cnc(N)nc4)cc2OCC3)n(C(C)C)n1 | > 6.00
77 | CC(C)n1ncnc1-c1cn2c(n1)-c1cc(Br)ccc1OCC2 | > 6.00
78 | CC(C)n1ncnc1-c1cn2c(n1)-c1cc(-c3ccc[nH]c3=O)ncc1OCC2 | > 6.00
79 | CC[C@H](Oc1ccc2c(c1)OCCn1cc(-c3ncnn3C(C)C)nc1-2)C(N)=O | > 6.00

Row | Structure (SMILES) | pIC50
80 | Cc1nc(-c2cn3c(n2)-c2cc(C#N)ccc2OCC3)n(C(C)C)n1 | > 6.00
81 | CC(C)n1ncnc1-c1cn2c(n1)-c1ccc(C3C(=O)NNC3=O)cc1OCC2 | > 6.00
82 | CNC(=O)c1ccc2c(c1)-c1nn(-c3ncnn3C(C)C)cc1CCO2 | > 6.00
83 | CC(C)(CO)N1CCC(c2ccc3c(c2)-c2nn(-c4ncnn4-c4ccc(F)cc4F)cc2CCO3)CC1 | > 6.00
84 | CC(C)n1ncnc1-c1cn2c(n1)-c1ccc(C3CCN(CC(=O)N(C)C)CC3)cc1OCC2 | > 6.00
85 | CC(C)(CO)NC(=O)c1ccc2c(c1)-c1nc(-c3ncnn3C3CCS(=O)(=O)C3)cn1CCO2 (configuration not stated) | > 6.00
86 | CC(C)n1nccc1-c1cn2c(n1)-c1cnc(N3CCC[C@H]3C(N)=O)cc1OCC2 | > 6.00
87 | CC(C)(O)CN1CC(c2ccc3c(c2)OCCc2cn(-c4ncnn4-c4ccc(F)cc4F)nc2-3)C1 | > 6.00
88 | CC(C)n1nc(N)nc1-c1cn2c(n1)-c1cc(-c3cncnc3)ccc1OCC2 | > 6.00
89 | CCNC(=O)CN1CCC(c2ccc3c(c2)OCCn2cc(-c4nc(C)nn4C(C)C)nc2-3)CC1 | > 6.00
90 | CN(C)c1cc2c(cn1)-c1nc(-c3ncnn3-c3ccccc3Cl)cn1CCO2 | > 6.00
91 | Cc1nc(-c2cn3c(n2)-c2ccc(C4CCN(CC(=O)NC(C)C)CC4)cc2OCC3)n(C(C)C)n1 | > 6.00
92 | CC(C)N(CCO)C(=O)c1cc2n(n1)-c1ccccc1OCC2 | > 6.00
93 | CC(C)n1ccnc1-c1cn2c(n1)-c1cnc(N3CCC[C@H]3C(N)=O)cc1OCC2 | > 6.00
94 | COc1cc2c(cn1)-c1nc(-c3ncnn3C(C)C)cn1CCO2 | > 6.00
95 | NC(=O)[C@@H]1CCCN1c1cc2c(cn1)-c1nc(-c3ncnn3CC(F)(F)F)cn1CCO2 | > 6.00
96 | CCN1CCC(c2ccc3c(c2)OCCn2cc(-c4ncnn4C(C)C)nc2-3)CC1 | > 6.00
97 | COC(=O)C(C)(C)n1cc(-c2ccc3c(c2)OCCn2cc(-c4nc(C)nn4C(C)C)nc2-3)cn1 | > 6.00
